The text below walks through data of patent publication US8436035B2, “Organic compounds” (Novartis AG, priority 2006, dated 2013).

In test [1] the target is T1, aldosterone synthase (CYP11B2) (Homo sapiens, UniProt P19099).
T1 construct: host or cells: NCI-H295R
T1 sequence (P19099 25-503): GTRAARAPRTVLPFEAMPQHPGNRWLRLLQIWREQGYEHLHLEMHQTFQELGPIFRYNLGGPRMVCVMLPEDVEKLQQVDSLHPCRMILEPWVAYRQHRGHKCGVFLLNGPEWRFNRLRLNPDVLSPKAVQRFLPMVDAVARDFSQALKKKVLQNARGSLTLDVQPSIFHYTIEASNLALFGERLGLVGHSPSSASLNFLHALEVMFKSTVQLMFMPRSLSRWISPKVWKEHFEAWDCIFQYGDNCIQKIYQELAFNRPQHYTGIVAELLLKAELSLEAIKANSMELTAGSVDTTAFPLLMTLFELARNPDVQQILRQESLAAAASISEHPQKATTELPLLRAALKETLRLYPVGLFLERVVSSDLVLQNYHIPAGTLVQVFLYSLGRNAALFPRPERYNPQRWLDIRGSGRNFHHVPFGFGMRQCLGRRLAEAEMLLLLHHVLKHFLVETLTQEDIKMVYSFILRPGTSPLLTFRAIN
In words: in vitro aldosterone synthase inhibition, aldosterone production in Ang II-stimulated NCI-H295R cells. In kind it is cell-based. Particulars: read-out: AS IC50. The text has this:
In particular, the aldosterone synthase inhibitory activities in vitro can be determined by the following assay.
Human adrenocortical carcinoma NCI-H295R cell line is obtained from American Type Culture Collection (Manassas, Va.). Insulin/transferrin/selenium (ITS)-A supplement (100×), DMEM/F-12, antibiotic/antimycotic (100×), and fetal calf serum (FCS) are purchased from Gibco (Grand Island, N.Y.). Anti-mouse PVT scintillation proximity assay (SPA) beads and NBS 96-well plates are obtained from Amersham (Piscataway, N.J.) and Corning (Acton, Mass.), respectively. Solid black 96-well flat bottom plates were purchased from Costar (Corning, N.Y.). Aldosterone and angiotensin (Ang II) are purchased from Sigma (St. Louis, Mo.). D-[1,2,6,7-^3H(N)]aldosterone was acquired from PerkinElmer (Boston, Mass.). Nu-serum was a product of BD Biosciences (Franklin Lakes, N.J.).
For in vitro measurement of aldosterone activity, human adrenocortical carcinoma NCI-H295R cells are seeded in NBS 96-well plates at a density of 25,000 cells/well in 100 μl of a growth medium containing DMEM/F12 supplemented with 10% FCS, 2.5% Nu-serum, 1 μg ITS/ml, and 1× antibiotic/antimycotic. The medium is changed after culturing for 3 days at 37° C. under an atmosphere of 5% CO2/95% air. On the following day, cells are rinsed with 100 μl of DMEM/F12 and incubated with 100 μl of treatment medium containing 1 μM Ang II and a compound at different concentrations in quadruplicate wells at 37° C. for 24 hr. At the end of incubation, 50 μl of medium is withdrawn from each well for measurement of aldosterone production by an RIA using mouse anti-aldosterone monoclonal antibodies.
Measurement of aldosterone activity can also be performed using a 96-well plate format. Each test sample is incubated with 0.02 μCi of D-[1,2,6,7-^3H(N)]aldosterone and 0.3 μg of anti-aldosterone antibody in phosphate-buffered saline (PBS) containing 0.1% Triton X-100, 0.1% bovine serum albumin, and 12% glycerol in a total volume of 200 μl at room temperature for 1 hr. Anti-mouse PVT SPA beads (50 μl) are then added to each well and incubated overnight at room temperature prior to counting in a Microbeta plate counter. The amount of aldosterone in each sample is calculated by comparing with a standard curve generated using known quantities of the hormone.

The target of the next test is T2, CYP11B1 (Homo sapiens, UniProt P15538).
T2 construct: Thus, the NCI-H295R cells have Cyp11 B1 (steroid 11 p-hydroxylase); host or cells: NCI-H295R
T2 sequence (P15538 25-503): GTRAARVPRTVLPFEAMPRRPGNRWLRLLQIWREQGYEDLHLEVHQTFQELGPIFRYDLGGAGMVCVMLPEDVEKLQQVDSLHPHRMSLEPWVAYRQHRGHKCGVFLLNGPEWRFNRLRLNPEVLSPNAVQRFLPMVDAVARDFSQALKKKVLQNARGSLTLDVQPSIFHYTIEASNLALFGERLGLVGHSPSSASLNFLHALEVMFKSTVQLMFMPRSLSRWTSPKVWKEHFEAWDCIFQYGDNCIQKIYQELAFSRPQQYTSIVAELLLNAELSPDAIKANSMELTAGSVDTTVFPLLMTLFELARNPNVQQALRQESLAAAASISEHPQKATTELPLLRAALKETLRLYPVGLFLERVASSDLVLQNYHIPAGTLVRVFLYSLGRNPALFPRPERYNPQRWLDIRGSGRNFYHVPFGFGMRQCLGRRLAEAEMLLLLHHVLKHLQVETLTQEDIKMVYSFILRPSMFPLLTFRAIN
The test can be described thus: in vitro CYP11B1 inhibition, steroid release from NCI-H295R cells. It counts as cell-based. Particulars: for inhibition at 0.1 µM: NCI-H295R, read-out: 11B1 % I @ 100 nM. The text has this: The in vitro inhibitory activities for CYP11B1 can be determined by the following assay.
The cell line NCI-H295R was originally isolated from an adrenocortical carcinoma and has been characterized in the literature through the stimulable secretion of steroid hormones and the presence of the enzymes essential for steroidogenesis. Thus, the NCI-H295R cells have Cyp11 B1 (steroid 11 p-hydroxylase). The cells show the physiological property of zonally undifferentiated human foetal adrenocortical cells which, however, have the capacity to produce the steroid hormones which are formed in the three, phenotypically distinguishable zones in the adult adrenal cortex.
The NCI-H295R cells (American Type Culture Collection, ATCC, Rockville, Md., USA) are grown in Dulbeoco's Modified Eagle'Ham F-12 Medium (DME/F12), which has been I supplemented with Ulroser SF Serum (Soprachem, Cergy-Saint-Christophe, France), insulin, transferrin, selenite (I-T-S, Becton Dickinson Biosciences, Franklin lakes, NJ, USA) and antibiotics in 75 cm^2 cell culture vessels at 37° C. and in a 95% air-5% carbon dioxide atmosphere. The cells are subsequently transferred for colony formation into a 24-well incubation vessel. They are cultivated there in DME/F12 medium, which is now supplemented with 0.1% bovine serum instead of Ultroser SF for 24 hours. The experiment is initiated by cultivating the cells in DME/F12 medium which is supplemented with 0.1% bovine serum albumin and test compound, in the presence or absence of cell stimulants, for 72 hours. The test substance is added in a concentration range from 0.2 nanomolar to […]. Cell stimulants which can be used are angiotensin 11 ([…] or 100 nanomolar), potassium ions (16 millimolar), forskolin (10 micromolar) or a combination of two stimulants.
The excretion of aldosterone, cortisol, corticosterone and estradiol/estrone into the culture medium can be detected and quantified by commercially available, specific monoclonal antibodies in radioimmunoassays in accordance with the manufacturer's instructions.
Inhibition of the release of certain steroids can be used as a measure of the respective enzyme inhibition by the added test compounds. The dose-dependent inhibition of enzymic activity by a compound is calculated by means of an inhibition plot which is characterized by an IC50.
The IC50 values for active test compounds are ascertained by a […] in order to construct inhibition plots without data weighting. The inhibition plot is calculated by fting a 4-parameter logistic function to the raw data points using the least squares method. The equation of the 4-parameter logistic function is calculated as follows: Y=(d−a)/((1+(x/c)b))+a I where: a=minimum data level b=gradient I c=ICED, d=maximum data level x=inhibitor concentration.

For `COC(=O)c1cncn1C1c2ccccc2OC1(C)C` (stereo not shown) [Compound 25, 3-(2,2-Dimethyl-2,3-dihydro-benzofuran-3-yl)-3H-imidazole-4-carboxylic acid methyl ester], the 50% inhibitory concentration (IC50) in test [1] came out at 0.046 µM. The inhibition at 0.1 µM on CYP11B1 came to 96%.
Regarding `COC(=O)c1cncn1[C@H]1c2ccccc2[C@@H](O)CC1(C)C` (relative stereo) [Compound 12, 3-(cis-4-Hydroxy-2,2-dimethyl-1,2,3,4-tetrahydro-naphthalen-r-1-yl)-3H-imidazole-4-carboxylic acid methyl ester], in test [1], the IC50 was 0.014 µM.
Consider `CC(C)OC(=O)c1cncn1C1CCCCc2ccccc21` (stereo not shown) [Compound 26, 3-(6,7,8,9-Tetrahydro-5H-benzocyclohepten-5-yl)-3H-imidazole-4-carboxylic acid isopropyl ester], for which the half-maximal inhibitory concentration (IC50) in test [1] worked out at 0.005 µM. In addition, the inhibition at 0.1 µM on CYP11B1 is 99%.
In the same order, the values of `CC1(C)CSc2ccccc2C1n1ccnc1` (stereo not shown) [Compound 14, 1-(3,3-Dimethyl-thiochroman-4-yl)-1H-imidazole] are 0.125 µM and 92%.
For `COC(=O)c1cncn1C1c2ccccc2C(NCc2ccccc2)CC1(C)C` (stereo not shown) [Compound 13, 3-(4-Benzylamino-2,2-dimethyl-1,2,3,4-tetrahydro-naphthalen-1yl)-3H-imidazole-4-carboxylic acid methyl ester], in that order: 0.696 µM and 60%.
For `CCc1cncn1C1CC(C)(C)c2ccccc21` (stereo not shown) [Compound 22, 1-(3,3-Dimethyl-indan-1-yl)-5-ethyl-1H-imidazole], in that order: 0.194 µM and 100%.
As to `CC(C)OC(=O)c1cncn1C1CCCc2ccc(N(C)S(C)(=O)=O)cc21` (stereo not shown) [Compound 5, 3-(7-Methanesulfonyl-methyl-amino-1,2,3,4-tetrahydro-naphthalen-1-yl)-3H-imidazole-4-carboxylic acid isopropyl ester], the IC50 in test [1] came to 0.352 µM.
As to `CC(C)OC(=O)c1cncn1C1CCCc2ccc(C#N)cc21` (stereo not shown) [Compound 6, 3-(7-Cyano-1,2,3,4-tetrahydro-naphthalen-1-yl)-3H-imidazole-4-carboxylic acid isopropyl ester], in test [1], the IC50 was determined as 0.197 µM.
Regarding “spiro[cyclopentane-1,2′-[3′-(7′-methyl-chroman-4′-yl)-3′H-imidazole-4′-carboxylic acid methyl ester]] [Compound 17]”, the IC50 in test [1] worked out at 0.175 µM. Further, on CYP11B1, the “11B1 % I @ 100 nM” value was found to be 100%.
Take `CC(C)OC(=O)c1cncn1C1CCCc2ccccc21` (single isomer, unassigned) [Compound 1, 3-(1,2,3,4-Tetrahydro-naphthalen-1-yl)-3H-imidazole-4-carboxylic acid isopropyl ester]: the IC50 in test [1] was determined as 0.044 µM. In addition, the inhibition at 0.1 µM on CYP11B1 came to 99%.
In the case of `c1ccc(COc2cncn2C2CSCc3ccccc32)cc1` (stereo not shown) [Compound 18, 5-Benzyloxy-1-isothiochroman-4-yl-1H-imidazole], the IC50 in test [1] was 0.152 µM.
On the same count and under the same terms, as for `CC(=O)Nc1ccc2c(c1)CCCC2n1cncc1C(=O)OC(C)C` (stereo not shown) [Compound 4, 3-(6-Acetylamino-1,2,3,4-tetrahydro-naphthalen-1-yl)-3H-imidazole-4-carboxylic acid isopropyl ester], the figure is 0.085 µM.
Turning to `CC(C)OC(=O)c1cncn1C1CCCc2ccc(C(=O)N3CCCC3)cc21` (single isomer, unassigned) [Compound 3, 3-[7-(Pyrrolidine-1-carbonyl)-1,2,3,4-tetrahydro-naphthalen-1-yl]-3H-imidazole-4-carboxylic acid isopropyl ester], the half-maximal inhibitory concentration (IC50) in test [1] came to 0.215 µM. For the same compound, the inhibition at 0.1 µM on CYP11B1 came to 87%.
As for `CC(C)OC(=O)c1cncn1C1CCOc2ccccc21` (single isomer, unassigned) [Compound 16, 3-Chroman-4-yl-3H-imidazole-4-carboxylic acid isopropyl ester], the IC50 in test [1] turned out to be 0.15 µM.
Turning to `CCc1cncn1C1CCC(C)(C)c2ccccc21` (single isomer, unassigned) [Compound 9, 1-(4,4-Dimethyl-1,2,3,4-tetrahydro-naphthalen-1-yl)-5-ethyl-1H-imidazole], the concentration for half-maximal inhibition (IC50) in test [1] amounted to 0.006 µM. On CYP11B1, the “11B1 % I @ 100 nM” value worked out at 100%.
Regarding `CC1(C)Cc2ccccc2C1n1cncc1C(=O)NCc1ccccc1` (stereo not shown) [Compound 19, 3-(2,2-Dimethyl-indan-1-yl)-3H-imidazole-4-carboxylic acid benzylamide], the 50% inhibitory concentration (IC50) in test [1] stood at 0.017 µM.
Same read-out and setting: with `CC(C)OC(=O)c1cncn1C1CCCc2cc(C3CC3)ccc21` (stereo not shown) [Compound 7, 3-(6-Cyclopropyl-1,2,3,4-tetrahydro-naphthalen-1-yl)-3H-imidazole-4-carboxylic acid isopropyl ester] the figure was 0.268 µM; with `CCC(=O)Oc1cncn1C1CCCc2ccccc21` (stereo not shown) [Compound 2, Propionic acid 3-(1,2,3,4-tetrahydro-naphthalen-1-yl)-3H-imidazol-4-yl ester], 0.021 µM.
In the case of `CC1(C)Cc2ccccc2C1n1cncc1C(=O)NCCO` (stereo not shown) [Compound 20, 3-(2,2-Dimethyl-indan-1-yl)-3H-imidazole-4-carboxylic acid (2-hydroxy-ethyl)-amide], the IC50 in test [1] stood at 0.006 µM.

A word on the IC50: it is the point on the concentration scale where inhibition reaches its midpoint.
